In experiment [1] the target is T1, HPSE (Homo sapiens, UniProt Q9Y251).
T1 construct: purchased Bio-Techne
T1 sequence (Q9Y251 158-543 limits assumed): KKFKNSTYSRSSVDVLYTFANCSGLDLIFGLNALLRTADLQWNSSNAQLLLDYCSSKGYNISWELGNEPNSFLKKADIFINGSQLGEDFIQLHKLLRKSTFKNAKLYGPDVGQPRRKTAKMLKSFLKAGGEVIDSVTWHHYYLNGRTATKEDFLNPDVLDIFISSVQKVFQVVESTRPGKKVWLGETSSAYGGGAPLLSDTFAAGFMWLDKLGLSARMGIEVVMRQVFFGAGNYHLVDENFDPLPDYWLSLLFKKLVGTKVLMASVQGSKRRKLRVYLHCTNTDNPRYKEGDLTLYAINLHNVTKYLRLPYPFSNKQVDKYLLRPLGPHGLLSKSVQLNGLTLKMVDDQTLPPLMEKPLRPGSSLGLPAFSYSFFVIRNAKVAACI
T1 sequence (Q9Y251 36-109 limits assumed): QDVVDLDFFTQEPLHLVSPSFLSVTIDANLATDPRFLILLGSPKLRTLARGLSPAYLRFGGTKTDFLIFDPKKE
Description: HPSE inhibitor study (ELISA-based HPSE activity assay with labeled rhSynd4). Type of experiment: biochemical. To be noted: 10 ng HPSE, 50 mM NaAc pH 4.0, 37° C. for two hours, OD 450.
Description: In order to prepare the sample for the assay, the goat anti-human Syndecan-4 capture antibody was diluted to a working concentration in PBS without carrier protein. A 96-well microplate was immediately coated with 100 μL per well of the diluted capture antibody. The plate was sealed and incubated overnight at room temperature. Each well was subsequently aspirated and washed with wash buffer, repeating the process two times for a total of three washes. The wash buffer is 25 mM Tris (pH 7.6), 137 mM NaCl, and 0.01% Tween (TBST). Each well was washed by filling each well with 400 μL of wash buffer using a squirt bottle, manifold dispenser, or autowasher. After the last wash, any remaining wash buffer was removed by aspirating or by inverting the plate and blotting it against clean paper towels. The microplate was then blocked by adding 300 μL of reagent diluent to each well and incubating the microplate for a minimum of 1 hour. The microplate was then aspirated/washed as described above for a total of three washes, and the microplate was thus ready for sample addition.
To perform the ELISA assay, 100 μL of the HPSE treated mixture diluted with 1% BSA in PBS buffer were added per well. The HPSE treated mixture was diluted such that the concentration of rhSynd4 was 25 ng/ml. […]
The absorbance (OD 450) for each of the three compounds was determined using a microplate reader set to 450 nm. […]

In experiment [2] the target is goat anti-human lumican capture antibody. Put plainly: ELISA detection of KS non-reducing end labeled recombinant lumican. The experiment is classed as binding. The conditions noted are these: 0-100 ng labeled lumican, 80 ng/well capture antibody, OD 450. On the procedure: This study confirmed that the endoglycosidase activity assay of this disclosure is applicable to other endoglycosidases in addition to HPSE. An ELISA assay was first used to detect labeled recombinant lumican. The non-reducing ends of KS chains on recombinant human lumican were labeled through in vitro incorporation of GlcNAz by B3GNT2 (a KS specific GlcNAc transferase) according to the procedure described in Example 2 above. Increasing amounts of the labeled lumican (0-100 ng) were subsequently immobilized on a 96-well plate coated with 80 ng/well of goat anti-human lumican capture antibody. A DuoSet ELISA kit of Human Lumican was used to perform an ELISA assay similarly to the procedure described in Example 4 above. The absorbance (OD 450) of each well was determined using a microplate reader set to 450 nm. FIG. 8 is a graph of the OD 450 of increasing amounts of labeled lumican. The data was fit to the equation y=Cx/(Kd+x) to obtain curve 802, where Kd is the ligand-receptor binding affinity (dissociation constant for lumican bound to the capture antibody).

Experiment [3] concerns the target goat anti-human Syndecan-4 capture antibody. Description: ELISA detection of HS non-reducing end labeled rhSynd4. Type of experiment: binding. To be noted: 0-50 ng labeled rhSynd4, 80 ng/well capture antibody, OD 450, fit y=Cx/(Kd+x). The protocol: In order to establish a high throughput compatible method for HS detection, an ELISA assay was used to attempt to detect labeled rhSynd4. The non-reducing ends of HS chains on rhSynd4 were labeled according to Example 2 above. Increasing amounts of the labeled rhSynd4 (0-50 ng) were subsequently immobilized on a 96-well plate coated with 80 ng/well of goat anti-human Syndecan-4 capture antibody. The Syndecan-4 DuoSet kit was used to perform an ELISA assay (described in detail in Example 4 below). The absorbance (OD 450) of each well was determined using a microplate reader set to 450 nanometers (nm).
FIG. 4 is a graph of the OD 450 of increasing amounts of labeled rhSynd4. The data was fit to the equation y=Cx/(Kd+x) to obtain curve 402, where Kd is the ligand-receptor binding affinity (dissociation constant for rhSynd4 bound to the capture antibody).

chondroitin sulfate: in experiment [1], the EC50 was determined as 0.39 µg/mL.
Still for that read-out and setting: then heparin, with 0.12 µg/mL.
Take “labeled lumican: recombinant human lumican with KS non-reducing ends labeled with GlcNAz by B3GNT2”: in experiment [2], the “Kd (dissociation constant for lumican bound to the capture antibody)” value stood at 7.58 ng.

B1: labeled rhSynd4: recombinant human Syndecan-4 with HS non-reducing ends labeled with GlcNAz and biotin by click chemistry (protein, UniProt P31431 19-198, looked up)
Syndecan-4: ESIRETEVIDPQDLLEGRYFSGALPDDEDVVGPGQESDDFELSGSGDLDDLEDSMIGPEVVHPLVPLDNHIPERAGSGSQVPTEPKKLEENEVIPKRISPVEESEDVSNKVSMSSTVQGSNIFERTEVLAALIVGGIVGILFAVFLILLLMYRMKKKDEGSYDLGKKPIYKKAPTNEFYA
modifications: HS ends labeled GlcNAz and biotin
notes: recombinant human Syndecan-4 with HS non-reducing ends labeled with GlcNAz and biotin by click chemistry
Consider B1, for which the “Kd (dissociation constant for rhSynd4 bound to the capture antibody)” value in experiment [3] is 3.4 ng.

The values above are taken from US10890586B2, “Methods and kits for assaying endoglycosidase activity” (Bio-Techne Corporation, priority 2016, dated 2021).
